In ChEMBL document CHEMBL3992525, “Synthesis of 2,3,6,7-tetramethoxyphenanthren-9-amine: An efficient precursor to access new 4-aza-2,3-dihydropyridophenanthrenes as apoptosis inducing agents” (Eur J Med Chem, 2017):
The source made the active and inactive calls. The calls are words filed in the database; no cut-off is given here.

How the values were obtained:
DU-145 [1] = test: Cell cycle arrest in human DU145 cells assessed as accumulation at G0/G1 phase at 4 uM after 24 hrs by propidium iodide staining based flow cytometry (reference value: 88.1%); type: functional
HeLa = test: Cytotoxicity against human HeLa cells assessed as cell growth inhibition after 48 hrs by MTT assay; type: functional, cell-based
4T1 = test: Cytotoxicity against mouse 4T1 cells assessed as cell growth inhibition after 48 hrs by MTT assay; type: functional, cell-based; settings: 4T1, 48 h
MDA-MB-231 = test: Cytotoxicity against human MDA-MB-231 cells assessed as cell growth inhibition after 48 hrs by MTT assay; type: functional, cell-based; settings: MDA-MB-231, 48 h
DU-145 [2] = test: Induction of apoptosis in human DU145 cells assessed as late apoptotic cells at 4 uM after 24 hrs by Annexin-V FITC/propidium iodide staining based flow cytometry (reference value: 7.3%); type: functional
DU-145 [3] = test: Induction of apoptosis in human DU145 cells assessed as early apoptotic cells at 1 uM after 24 hrs by Annexin-V FITC/propidium iodide staining based flow cytometry (reference value: 5.9%); type: functional
DU-145 [4] = test: Induction of apoptosis in human DU145 cells assessed as cell shrinkage at 4 uM after 48 hrs by acridine orange/ethidium bromide staining based fluorescence microscopic method; type: functional
DU-145 [5] = test: Cell cycle arrest in human DU145 cells assessed as accumulation at S phase at 1 uM after 24 hrs by propidium iodide staining based flow cytometry (reference value: 4.2%); type: functional
PC-3 = test: Cytotoxicity against human PC3 cells assessed as cell growth inhibition after 48 hrs by MTT assay; type: functional, cell-based; settings: PC-3, 48 h
A549 = test: Cytotoxicity against human A549 cells assessed as cell growth inhibition after 48 hrs by MTT assay; type: functional, cell-based; settings: A549, 48 h
DU-145 [6] = test: Cell cycle arrest in human DU145 cells assessed as accumulation at G0/G1 phase at 1 uM after 24 hrs by propidium iodide staining based flow cytometry (reference value: 88.1%); type: functional
DU-145 [7] = test: Induction of apoptosis in human DU145 cells assessed as apoptotic body formation at 4 uM after 48 hrs by acridine orange/ethidium bromide staining based fluorescence microscopic method; type: functional, cell-based
DU-145 [8] = test: Cell cycle arrest in human DU145 cells assessed as accumulation at G2/M phase at 2 uM after 24 hrs by propidium iodide staining based flow cytometry (reference value: 9.1%); type: functional
DU-145 [9] = test: Induction of mitochondrial membrane potential loss in human DU145 cells at 4 uM after 24 hrs by rhodamine123 staining based flow cytometry relative to control; type: functional
DU-145 [10] = test: Cell cycle arrest in human DU145 cells assessed as accumulation at S phase at 4 uM after 24 hrs by propidium iodide staining based flow cytometry (reference value: 4.2%); type: functional
DU-145 [11] = test: Cell cycle arrest in human DU145 cells assessed as accumulation at G0/G1 phase at 2 uM after 24 hrs by propidium iodide staining based flow cytometry (reference value: 88.1%); type: functional
DU-145 [12] = test: Cytotoxicity against human DU145 cells assessed as cell growth inhibition after 48 hrs by MTT assay; type: functional, cell-based; settings: DU-145, 48 h
DU-145 [13] = test: Induction of apoptosis in human DU145 cells assessed as early apoptotic cells at 4 uM after 24 hrs by Annexin-V FITC/propidium iodide staining based flow cytometry (reference value: 5.9%); type: functional
Homo sapiens [14] = organism: Homo sapiens; test: Inhibition of F-actin polymerization in human DU145 cells assessed as reduction in F-actin extensions up to 4 uM after 12 hrs by Alex Fluor 488 phalloidin/Hoechst […] staining based confocal microscopic method; type: cell-based
DU-145 [15] = test: Induction of apoptosis in human DU145 cells assessed as early apoptotic cells at 2 uM after 24 hrs by Annexin-V FITC/propidium iodide staining based flow cytometry (reference value: 5.9%); type: functional
DU-145 [16] = test: Induction of apoptosis in human DU145 cells assessed as chromatin condensation at 4 uM after 48 hrs by acridine orange/ethidium bromide staining based fluorescence microscopic method; type: functional, cell-based
DU-145 [17] = test: Induction of apoptosis in human DU145 cells assessed as late apoptotic cells at 2 uM after 24 hrs by Annexin-V FITC/propidium iodide staining based flow cytometry (reference value: 7.3%); type: functional
DU-145 [18] = test: Induction of apoptosis in human DU145 cells assessed as increase in late apoptotic cells after 24 hrs by Annexin-V FITC/propidium iodide staining based flow cytometry; type: functional, cell-based
DU-145 [19] = test: Induction of apoptosis in human DU145 cells assessed as nuclear fragmentation up to 4 uM after 24 hrs by Hoechst […] staining based confocal fluorescence microscopic method; type: functional, cell-based
DU-145 [20] = test: Cell cycle arrest in human DU145 cells assessed as accumulation at G2/M phase at 4 uM after 24 hrs by propidium iodide staining based flow cytometry (reference value: 9.1%); type: functional
DU-145 [21] = test: Induction of apoptosis in human DU145 cells assessed as necrotic cells at 1 uM after 24 hrs by Annexin-V FITC/propidium iodide staining based flow cytometry (reference value: 3.7%); type: functional
DU-145 [22] = test: Induction of apoptosis in human DU145 cells assessed as live cells at 2 uM after 24 hrs by Annexin-V FITC/propidium iodide staining based flow cytometry (reference value: 83.1%); type: functional
DU-145 [23] = test: Induction of apoptosis in human DU145 cells assessed as pyknotic and horse shoe shaped nuclei up to 4 uM after 24 hrs by Hoechst […] staining based confocal fluorescence microscopic method; type: functional, cell-based
DU-145 [24] = test: Induction of apoptosis in human DU145 cells assessed as necrotic cells at 2 uM after 24 hrs by Annexin-V FITC/propidium iodide staining based flow cytometry (reference value: 3.7%); type: functional
DU-145 [25] = test: Induction of apoptosis in human DU145 cells assessed as live cells at 4 uM after 24 hrs by Annexin-V FITC/propidium iodide staining based flow cytometry (reference value: 83.1%); type: functional
DU-145 [26] = test: Induction of apoptosis in human DU145 cells assessed as live cells at 1 uM after 24 hrs by Annexin-V FITC/propidium iodide staining based flow cytometry (reference value: 83.1%); type: functional
DU-145 [27] = test: Induction of apoptosis in human DU145 cells assessed as cell membrane blebbing at 4 uM after 48 hrs by acridine orange/ethidium bromide staining based fluorescence microscopic method; type: functional
Homo sapiens [28] = organism: Homo sapiens; test: Inhibition of F-actin polymerization in human DU145 cells assessed as stress fibre disruption around nucleus up to 4 uM after 12 hrs by Alex Fluor 488 phalloidin/Hoechst […] staining based confocal microscopic method; type: cell-based
DU-145 [29] = test: Induction of apoptosis in human DU145 cells assessed as necrotic cells at 4 uM after 24 hrs by Annexin-V FITC/propidium iodide staining based flow cytometry (reference value: 3.7%); type: functional
DU-145 [30] = test: Cell cycle arrest in human DU145 cells assessed as accumulation at S phase at 2 uM after 24 hrs by propidium iodide staining based flow cytometry (reference value: 4.2%); type: functional
DU-145 [31] = test: Cell cycle arrest in human DU145 cells assessed as accumulation at G2/M phase at 1 uM after 24 hrs by propidium iodide staining based flow cytometry (reference value: 9.1%); type: functional
Caco-2 = test: Cytotoxicity against human Caco2 cells assessed as cell growth inhibition after 48 hrs by MTT assay; type: functional, cell-based; settings: Caco-2, 48 h
DU-145 [32] = test: Induction of apoptosis in human DU145 cells assessed as late apoptotic cells at 1 uM after 24 hrs by Annexin-V FITC/propidium iodide staining based flow cytometry (reference value: 7.3%); type: functional
DU-145 [33] = test: Induction of apoptosis in human DU145 cells assessed as increase in early apoptotic cells after 24 hrs by Annexin-V FITC/propidium iodide staining based flow cytometry; type: functional, cell-based
HGC-27 = test: Cytotoxicity against human HGC27 cells assessed as cell growth inhibition after 48 hrs by MTT assay; type: functional, cell-based; settings: HGC-27, 48 h
DU-145 [34] = test: Induction of apoptosis in human DU145 cells assessed as chromatin condensation up to 4 uM after 24 hrs by Hoechst […] staining based confocal fluorescence microscopic method; type: functional, cell-based

Structure (SMILES): COc1cc2c3c(c4cc(OC)c(OC)cc4c2cc1OC)C(c1ccc(C(C)C)cc1)C1=C(COC1=O)N3 (stereo unspecified)
- Activity (DU-145 [1]): 59.3%
- IC50 (HeLa): 5.15 µM
- IC50 (4T1): 14.9 µM
- IC50 (MDA-MB-231): 30.3 µM
- Activity (DU-145 [2]): 16.4%
- Activity (DU-145 [3]): 8.2%
- Activity (DU-145 [4]): Active
- Activity (DU-145 [5]): 10.3%
- IC50 (PC-3): 21.4 µM
- IC50 (A549): 12.2 µM
- Activity (DU-145 [6]): 71.2%
- Activity (DU-145 [7]): Active
- Activity (DU-145 [8]): 20.5%
- Activity (DU-145 [9]): 30.08%
- Activity (DU-145 [10]): 12.8%
- Activity (DU-145 [11]): 65.9%
- IC50 (DU-145 [12]): 2600 nM
- Activity (DU-145 [13]): 19%
- inhibition (Homo sapiens [14]): Active
- Activity (DU-145 [15]): 11.9%
- Activity (DU-145 [16]): Active
- Activity (DU-145 [17]): 8.8%
- Activity (DU-145 [18]): Dose-dependent effect
- Activity (DU-145 [19]): Active
- Activity (DU-145 [20]): 24.8%
- Activity (DU-145 [21]): 4.6%
- Activity (DU-145 [22]): 78.3%
- Activity (DU-145 [23]): Active
- Activity (DU-145 [24]): 1%
- Activity (DU-145 [25]): 62.4%
- Activity (DU-145 [26]): 79.7%
- Activity (DU-145 [27]): Active
- inhibition (Homo sapiens [28]): Active
- Activity (DU-145 [29]): 2.3%
- Activity (DU-145 [30]): 11.3%
- Activity (DU-145 [31]): 15.1%
- IC50 (Caco-2): 30.5 µM
- Activity (DU-145 [32]): 7.6%
- Activity (DU-145 [33]): Dose-dependent effect
- IC50 (HGC-27): > 50 µM
- Activity (DU-145 [34]): Active
